From patent US20230416294A1, “DECITABINE ANALOGS FOR IMMUNOLOGICAL AND ONCOLOGICAL THERAPY” (The Johns Hopkins University, priority 2020, published 2023)
Like-named read-outs stand apart in the source and are kept apart here.

Assays:
[1] = test system: Regulatory T cell (Tregs); assay: Treg functional assay for efficacy; type: cell-based, Murine; settings: dose response
Description: A functional assay was developed to identify a compound that can augment Regulatory T cell (Tregs) suppressive function. Tregs are the major regulators of the immune systems and are paramount in transplant tolerance and in autoimmune and inflammatory diseases. Current hypomethylating drugs such as decitabine (DAC) can augment Treg function, but carry significant side effects and cytotoxicity. Murine Tregs were isolated from spleens using magnetic beads (Miltenyi). […] Tregs were cultured for 48 hrs in the presence of anti-CD3, anti CD28 and IL-2+/−equimolar concentrations decitabine and analogs. After 48 hrs, Tregs were analyzed for suppressive phenotype using Foxp3 expression (master transcription factor) and relative proliferation (Ki-67 expression).

Mouse CD4+ T cells = assay: regulatory T cell phenotype and function in cultured CD4+ T cells; type: cell-based; settings: Mouse CD4+ T cells cultured for 3 days +/−DAC or MK-923
Description: Mouse CD4+ T cells were cultured for 3 days +/−DAC or MK-923;

[2] = test system: eosinophilic inflammation; assay: asthma model; settings: in vivo
influenza = influenza model; settings: in vivo
lung allograft rejection = assay: lung allograft rejection; settings: in vivo
cytidine deaminase (CDA) = cytidine deaminase (CDA) (Homo sapiens, UniProt P32320); assay: stability to cytidine deaminase (CDA); type: in vitro ADME
[3] = toxicity of nebulized compound versus DAC; type: in vivo
[4] = test system: bacterial-induced lung injury; assay: bacterial-induced lung injury model, nebulized compound; type: in vivo; settings: (1 mg/kg DAC)
[5] = test system: acute lung injury induced by lipopolysaccharide (LPS); settings: in vivo
[6] = lung delivery versus plasma after nebulization in LPS lung injury model; type: in vivo; settings: inhaled, nebulized, read-out: enhanced lung delivery versus plasma
DU145 cancer cells = assay: DAC incorporation into genomic DNA and DNA demethylation in DU145 cells; type: cell-based; settings: DU145 cancer cells treated with a dose response of MK-923
Description: DU145 cancer cells were treated with a dose response of MK-923, and the degree of 5-aza-2′deoxycytidine (DAC) (Blue line, left axis), and DNA demethylation (orange line, right axis), was measured.

cytidine deaminase (CDA), sequence (P32320 whole entry, species assumed): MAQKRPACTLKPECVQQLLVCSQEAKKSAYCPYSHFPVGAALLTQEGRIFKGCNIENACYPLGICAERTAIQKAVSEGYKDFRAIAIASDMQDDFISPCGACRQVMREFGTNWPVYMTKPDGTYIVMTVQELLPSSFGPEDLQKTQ

Nc1ncn([C@H]2C[C@H](O)[C@@H](CO)O2)c(=O)n1 [decitabine, 5-aza-2′-deoxycytidine]
increase in Tregs [1]: dose-dependent increase | enhancing regulatory T cell (Tregs) phenotype and function (Mouse CD4+ T cells): equipotent | eosinophilic inflammation in an asthma model [2]: potently abrogates eosinophilic inflammation | ongoing inflammation in an influenza model (influenza): rescues ongoing inflammation | lung allograft rejection (lung allograft rejection): improves lung allograft rejection

O=c1nc(/N=C/N2CCCC2)ncn1[C@H]1C[C@H](O)[C@@H](CO)O1 [MK-911]
increase in Tregs [1]: dose-dependent increase | stability to cytidine deaminase (CDA) (cytidine deaminase (CDA)): stable

CN1CCC/C1=N/c1ncn([C@H]2C[C@H](O)[C@@H](CO)O2)c(=O)n1 [MK-923]
toxicity versus DAC [3]: improved toxicity versus DAC | enhancing regulatory T cell (Tregs) phenotype and function (Mouse CD4+ T cells): equipotent | efficacy in bacterial-induced lung injury [4]: rescues bacterial-induced lung injury | hematological toxicity [4]: reduced hematological toxicity | therapeutic index versus DAC [5]: enhanced therapeutic index versus DAC | toxicity in LPS lung injury model [5]: without overt toxicity | Kp [6]: 6 | 5-aza-2′deoxycytidine (DAC) incorporation into genomic DNA (DU145 cancer cells): dose responsive increase | DNA Cytosine methylation (DU145 cancer cells): decrease

CN(C)/C=N\c1ncn([C@H]2C[C@H](O)[C@@H](CO)O2)c(=O)n1 [MK-890, N^4-Dimethylaminomethylene derivative]
stability to cytidine deaminase (CDA) (cytidine deaminase (CDA); +/−tetrahydrouridine): stable
